Measured values from patent publication US20220184059A1, “PROCESS FOR PREPARING SPHERICAL AGGLOMERATES OF TIMAPIPRANT” (Chiesi Farmaceutici S.p.A., priority 2018, published 2022).
Values joined by “and” are separate entries in the source; they are usually repeats but may differ in a detail not shown here. Identical values can stand only once. Like-named read-outs stand apart in the source and are kept apart here.

Key:
[1] = Primary particle size distribution by laser diffraction after break up of spherical agglomerates; assay type: physicochemical; details: primary particles; for PSD d (0.1), Mean result / PSD d (0.5), Mean result: mean of 10 acquisitions
Experimental: The primary particle size distribution results are produced by means of a Malvern 2000 laser diffraction equipment by the analysis of the primary particles in suspension.
The particle size distribution laser diffraction measures were performed using a Malvern Mastersizer 2000 equipped with a Hydro 2000S cell for the wet suspension of the Timapiprant primary particles. The spherical agglomerates obtained according to the Examples 3 and 5, were dispersed in water by means of 10 minutes sonication and then added to the cell, previously filled with water, until an obscuration within 5-10% was obtained. The stirring rate was set at 1500 rpm and each of the suspensions produced were analysed by 10 acquisitions, the results are reported in Tables 1 and 2.

[2] = Specific surface area (SSA) by BET nitrogen adsorption; assay type: physicochemical
Experimental: The specific surface areas (SSA) of spherical agglomerates of timapiprant obtained according to Examples 3, 5,7 and the micronized timapiprant were measured was determined by BET nitrogen adsorption using the TriStar of Micromeritics apparatus according to following parameters: • Isotherm, Adsorbing/Desorbing Run: 0 to 1 p/p0 • Vials: ⅜ Inch, Degasing Pre-analysis: 2 hours at 40° C., Nitrogen as adsorbate • Preparation: Evacuation Rate 10 mmHg/s; Unrestricted evacuation from 5 mmHg • Vacuum setpoint: 10 mmHg, Evacuation time: 1 hour • Leak Test Duration: 120 s, Outgas Test Duration: 180 s • Measure p0 at intervals during the analysis, Enter the analysis bath temperature: […]77 kelvin • Equilibration Interval: 5 s; Minimum Equilibration Delay at p/p0>=0.995 per 600 s.

[3] = Flowability of blend material with excipients; assay type: physicochemical; details: for Flowability (s/100 g): blend material of API with excipients of Table 3; for Flow properties of blend: blend material of API with excipients
Experimental: The spherical agglomerates of timapiprant or the micronized timapiprant, together with the microcrystalline cellulose, the croscarmellose sodium, the poloxamer, the sodium lauryl sulphate and the colloidal silicon dioxide in the above amounts, are sieved in a sieve of 1.2 mm. The lactose monohydrate is then added, and the resulting mixture is blended in a free fall blender for at least 15 minutes. The magnesium stearate is added to the obtained mixture which is further blended in the free fall blender for additional 3 minutes.

[4] = target: T1, prostaglandin D2 receptor (CRTH2) (Homo sapiens, UniProt Q9Y5Y4); details: cited from earlier work
T1 sequence (Q9Y5Y4 1-395): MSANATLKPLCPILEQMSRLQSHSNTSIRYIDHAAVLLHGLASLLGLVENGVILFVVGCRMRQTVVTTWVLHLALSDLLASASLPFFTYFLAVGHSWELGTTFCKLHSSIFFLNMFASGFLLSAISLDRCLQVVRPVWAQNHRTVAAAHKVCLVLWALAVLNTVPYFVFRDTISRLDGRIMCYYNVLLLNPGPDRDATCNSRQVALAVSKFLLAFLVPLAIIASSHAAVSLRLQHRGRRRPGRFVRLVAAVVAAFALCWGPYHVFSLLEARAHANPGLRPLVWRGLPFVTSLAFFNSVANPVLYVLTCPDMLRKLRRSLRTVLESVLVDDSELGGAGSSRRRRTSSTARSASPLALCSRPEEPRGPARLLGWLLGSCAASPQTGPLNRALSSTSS

[5] = tested on: human Th2 lymphocytes and eosinophils; details: cited from earlier work
[6] = tested on: patients with atopic eosinophilic asthma; details: cited from earlier work
[7] = agglomerates dispersed in water by 10 minutes sonication, single acquisition

Cc1c(Cc2ccc3ccccc3n2)c2cc(F)ccc2n1CC(=O)O [Example 3, (5-fluoro-2-methyl-3-quinolin-2-yl-methyl-indol-1-yl)acetic acid]
PSD d (0.1) [1, 7]: 0.28 μm | PSD d (0.5) [1, 7]: 0.56 μm | PSD d (0.1), Mean result [1]: 0.28 μm | PSD d (0.5), Mean result [1]: 0.56 μm | SSA (m^2/g) ([2]; listed as Spherical agglomerates of timapiprant of Example 3): 13.1 m^2/g

Cc1c(Cc2ccc3ccccc3n2)c2cc(F)ccc2n1CC(=O)O [Example 5, (5-fluoro-2-methyl-3-quinolin-2-yl-methyl-indol-1-yl)acetic acid]
PSD d (0.5) [1, 7]: 0.64 μm | PSD d (0.1), Mean result [1]: 0.31 μm | PSD d (0.5), Mean result [1]: 0.64 μm | Flowability (s/100 g) ([3]; listed as Spherical agglomerates of timapirpant): 4 sec s/100 g | Flow properties of blend ([3]; listed as spherical agglomerates of timapiprant): good flowability | SSA (m^2/g) ([2]; listed as Spherical agglomerates of timapiprant of Example 5): 10.1 m^2/g

Cc1c(Cc2ccc3ccccc3n2)c2cc(F)ccc2n1CC(=O)O [Example 7, (5-fluoro-2-methyl-3-quinolin-2-yl-methyl-indol-1-yl)acetic acid]
SSA (m^2/g) ([2]; listed as Spherical agglomerates of timapiprant of Example 7): 15.5 m^2/g

Cc1c(Cc2ccc3ccccc3n2)c2cc(F)ccc2n1CC(=O)O [Micronized Timapiprant, reference compound]
Flow properties of blend [3]: very poor flow properties | Flowability (s/100 g) [3]: ∞ | SSA (m^2/g) [2]: 8.0 m^2/g and 7.8 m^2/g | SSA (m^2/g) ([2]; listed as micronized timapiprant): less than 8.5 m^2/g

Cc1c(Cc2ccc3ccccc3n2)c2cc(F)ccc2n1CC(=O)O [timapiprant]
CRTH2 antagonist activity [4]: potent, selective, and orally active prostaglandin D2 receptor (CRTH2) antagonist | Inhibition of mast cell-dependent activation [5]: inhibits mast cell-dependent activation of both human Th2 lymphocytes and eosinophils | Clinical efficacy [6]: effective in reducing airway inflammation and improving lung function and quality of life
